Measurements: patent publication US20130137728A1, “Compositions and Methods for the Treatment of Degenerative Diseases” (MUSC Foundation For Research And Development, priority 2010, published 2013)
“Also recorded” adds a separate entry of the source. Non-standard residues stand in square brackets, D forms with d. Residues, ends and D or L forms follow the SMILES beside them. Nle = CCCC[C@H](N)C(=O)O

Legend:
661W cells [1] = assay: XF24 assay of stressor effects on respiratory capacity (OCR, FCCP response); type: cell-based, mouse; details: for mitochondrial capacity measured from the FCCP response: 30 min after treatment; for respiratory / mitochondrial capacity (FCCP-uncoupled OCR): IBMX 1.0 mM in FIG. 19
Experimental: (§1) 28. FIG. 17. Calcium and oxidative stress attenuate mitochondrial capacity. Shown are 661W cell OCR responses to 1 μM FCCP after treatment with listed concentrations of (A) A23187 and (B) tBuOOH. In A OCR rates are given as pmol/min, in B the rates for each well have been normalized to the basal rates measured prior to FCCP (which standardizes comparisons between data measured on different days). 661W cells analyzed by XF24 were incubated for 24 h and viability determined using ethidium bromide/acridine orange. Images of cells treated with (C) 1 μM A23187 and (D) control represent 47% and >95% viability.
30. FIG. 19. Mild calcium or oxidative stress reduces metabolic capacity in a photoreceptor cell line. (Calcium stress, left panel) 661W cells were treated with vehicle control (dark blue) or 1.0 mM IBMX (turquoise), followed by treatment with 1 μM FCCP. […] (Oxidant stress, right panel)
(§2) 257. As shown in FIG. 1 and FIG. 2 below, compounds CB11, CB11a, CB11b, CB11c, CB11d and IBMX (see FIG. 1); compounds CB12, CB12a, CB12b, CB12c, CB12d and IBMX (see FIG. 2) were tested against the calcium-induced mitochondrial damage assay. IBMX is a membrane-permeable inhibitor of β-phosphodiesterase which results in a buildup of cGMP. An excess of cGMP increases the number of cGMP-gated cation channels in an open configuration, allowing an influx of Ca2+ into the cell, leading to mitochondrial damage and eventual cell death.
268. In preliminary experiments the energy metabolism of 661W cells using the XF24. 661W cells were analyzed and produce large amounts of lactic acid from glucose oxidation [Winkler B S, Starnes C A, Sauer M W, Firouzgan Z, Chen S C: Cultured retinal neuronal cells and Muller cells both show net production of lactate. Neurochem Int 2004, 45(2-3):311-320]. […] To examine whether the metabolic responses were predictive of cell death due to calcium or oxidant stress, the cells were exposed to calcium ionophore A23187 or the oxidant tert-butylhydroperoxide (tBuOOH) on the XF24 instrument for 30 min after which some of the treated cells were exposed to the protonophore FCCP to uncouple the mitochondrial membrane potential. The uncoupling attenuates ATP production and causes the mitochondria to dramatically increase oxygen consumption in an attempt to recover the lost ATP production capacity. The increase in oxygen consumption is a measure of the total mitochondrial capacity or reserve.
271. In preliminary studies, the direct oxidant tert-butylhydroperoxide (tBuOOH) was used to induce oxidant stress and the agent A23187, a calcium ionophore that binds to and carries Ca^2+ across cellular membranes, including mitochondrial membranes (Abbott, B. J., Fukuda, D. S., Dorman, D. E., Occolowitz, J. L., Debono, M., and Farhner, L. (1979) Antimicrob. Agents Chemother. 16(6), 808-812). Because A23187 rapidly increases intracellular and intra-mitochondrial calcium concentrations, it triggers Ca^2+-mediated programmed cell death (2. Orrenius, S., Zhivotovsky, B., and Nicotera, P. (2003) Nat. Rev. Mol. Cell. Biol. 4, 552-565; Hajnóczky, G., Davies, E., and Madesh, M. (2003) Biochem. Biophys. Res. Commun. 304, 445-454). One could argue that these two agents are akin to hammers rather than the more subtle, chronic oxidant and calcium stressors seen in degenerative processes. The XF24 assay was validated using two more physiologically relevant stressors. To induce calcium stress, 3-Isobutyl-1-methyl xanthine (IBMX), a non-selective phosphodiesterase (PDE) inhibitor was used (4. Zhang, X., Feng, Q., and Cote, R. H. (2005) Invest. Ophthalmol. Vis. Sci. 46(9), 3060-3066). Inhibition of PDEs causes increases in the intracellular cAMP and cGMP concentrations leading to slow activation cGMP-gated cation channels and an increase of Ca^2+ flux into the cell (5. Yarfitz, S., and Hurley, J. B. (1994) J. Biol. Chem. 269(20), 14329-14332; Koutalos, Y., and Yau, K.-W. (1996) Trends Neurosci. 19, 73-81). […]

[2] = Viability of stressor-treated cells by dye exclusion 24 h after treatment; type: cell-based; details: mouse; 661W cells; 1 μM A23187; incubated 24 h; ethidium bromide/acridine orange
Experimental: as §1
269. The cells were then returned to the incubator and analyzed for cell viability via dye exclusion 24 h after treatment (FIGS. 17C,D). […] In addition, the higher concentrations produced profound changes in metabolic phenotype as evidenced in the cell's responses to the uncoupler FFCP. […] In both cases, reduced OCR and ECAR values are predictive of cell death although at intermediate concentrations, where cell death is still occurring, the ECAR rates actually increase, particularly for tBuOOH treatments.

661W cells [3] = assay: Calcium-induced mitochondrial damage assay (IBMX, OCR on Seahorse XF24); type: cell-based, mouse; details: pretreatment with 1 μM for 1 h prior to addition of IBMX
Experimental: 32. FIG. 21. Secondary screening of neuroprotective agents discovered from library screening. The 661W cells were pretreated for 1 h with lead compounds, CB10-CB12 (1 μM), prior to treatment with 600 μM IBMX. The basal and uncoupled OCR rates were measured.
as §2
274. […] A higher stringency for hit selection than is commonly used was performed to avoid the less productive process of filtering through a large number of poor leads. It is notable that the complete ChemBridge library contains over 700,000 molecules that are searchable based on chemical structure, physicochemical properties, etc. To identify the active species present in the initial pool of 12 compounds were screened and then chemical similarity searches on the larger 700,000 member library was performed to identify other molecules that define pharmacophores. This strategy has more efficiently lead to agents that block retinal degeneration. Also, this strategy enabled quick identification of a small number of agents that that were moved into more sophisticated cellular and physiological models so as to better validate the mechanisms. For example, in the high-throughput screen a very toxic, non-specific calcium ionophore assay was used which gives a rather broad readout of cell “viability”. In the secondary assays the specificity and stringency were increased via use of more specific calcium stressor, 3-isobutyl-1-methylxanthine (IBMX) and a more relevant metabolic read-out, loss of respiratory capacity as measured from the attenuation of the uncoupled respiratory rate as measured with the Seahorse instrument. This assay format was used to evaluate the 12 initial lead compounds and are pleased to report that several of these agents do indeed protect against loss in respiratory capacity due to IBMX exposure.

661W cells [4] = assay: A23187 viability screen (MTS assay); type: cell-based, mouse; details: 50 μM, 1 μM A23187, 24 hours
Source text: 273. ChemBridge, Inc. has a large (>700,000) commercially available chemical library and a DIVERSet library was obtained, which is a subset of compounds selected for diversity and favorable drug-like properties. Because the DIVERSet library is much too large for lower throughput, high-content screens, single end-point assays amenable to high-throughput were developed and disclosed herein. […] A viability assay using treatments with A23187 to search for molecules in the library that protect from acute calcium toxicity was developed and disclosed herein. The concentration of A23187 was selected to give about 50% death and pools that protected against death were identified. The assay format was optimized and validated using calpeptin, a […] as a positive control. In brief, 661W cells were maintained in DMEM supplemented with 10% FBS. For the assay, 100 μL of 70,000 cells/mL cells were seeded into each well of 96 well plates using DMEM supplemented with 5% FBS. Cells were then allowed to grow to confluency for 48 hours. Library compounds were added in 2 μL containing 10 compounds at 20 μM each. Ionophore A23187 was then added in 1 μL for a final concentration of 1 μM and after 24 hours cells were analyzed for viability using the MTS assay according to the manufactures protocol (Promega CellTiter 96® Cat.#G5421). […]

661W cells [5] = assay: XF24 assay of stressor effects on respiratory capacity (OCR, FCCP response); type: cell-based, mouse; details: 661W cells treated with 1 μM IBMX for 20 min
rd1 photoreceptors = assay: rd1 mouse retinal organ culture assay (retina-RPE explants, photoreceptor row count); type: cell-based

## CNc1ccc2oc(C[C@H]3O[C@@]4(CC[C@H]3C)O[C@H]([C@H](C)C(=O)c3ccc[nH]3)[C@H](C)C[C@H]4C)nc2c1C(=O)O [A23187]
661W cells [1]
  mitochondrial capacity measured from the FCCP response: significant loss of mitochondrial capacity
[2]
  viability at 24 h, 1 μM: 47%

## O=C(CC1(O)C(=O)N(CCc2ccccc2)c2ccccc21)c1cccnc1 (stereo not shown) [CB11b]
661W cells [3]
  basal and maximal OCR (oxygen consumption rate): improvement of both basal and maximal OCR

## O=C(CC1(O)C(=O)N(CCc2ccccc2)c2ccc(Cl)cc21)c1ccccn1 (stereo not shown) [CB11c]
661W cells [3]
  basal and maximal OCR (oxygen consumption rate): improvement of both basal and maximal OCR

## CCOC(=O)CN1C(=O)C(O)(CC(=O)c2ccccn2)c2ccccc21 (stereo not shown) [CB11d]
661W cells [3]
  basal and maximal OCR (oxygen consumption rate): improvement of both basal and maximal OCR

## COC(=O)c1ccccc1NC(=O)c1sc(-c2cccnc2)nc1C [CB12b]
661W cells [3]
  basal and maximal OCR (oxygen consumption rate): improvement of both basal and maximal OCR

## CC(=O)Nc1cccc(NC(=O)c2sc(-c3cccnc3)nc2C)c1 [CB12c]
661W cells [3]
  basal and maximal OCR (oxygen consumption rate): improvement of both basal and maximal OCR

## Cc1nc(-c2cccnc2)sc1C(=O)Nc1ccc(C(N)=O)cc1 [CB12d]
661W cells [3]
  basal and maximal OCR (oxygen consumption rate): improvement of both basal and maximal OCR

## CCCC[C@@H](C=O)NC(=O)[C@H](CC(C)C)NC(=O)[C@H](CC(C)C)NC(C)=O [Calpain Inhibitor I] (Ac-Leu-Leu-[Nle]-aldehyde)
661W cells [4]
  reversal of ionophore A23187 effects on viability: able to reverse ionophore effects

## CC(C)Cn1c(=O)n(C)c(=O)c2[nH]cnc21 [IBMX, 3-Isobutyl-1-methyl xanthine]
661W cells [1]
  effect on basal respiration rates: little or no direct effect on basal respiration rates
  respiratory / mitochondrial capacity (FCCP-uncoupled OCR): diminished respiratory capacity compared to control; also recorded: same types of loss in mitochondrial capacity
661W cells [1]; 600 μM IBMX
  basal and uncoupled OCR relative to untreated control: attenuates basal and uncoupled OCR
661W cells [1]; 500-600 μM IBMX
  decrease in both basal and maximal (FCCP-uncoupled) respiratory capacity: ~50%
661W cells [5]
  loss in metabolic capacity as measured from the FCCP response: ~50%

## CCCC[C@@H](C=O)NC(=O)[C@H](CC(C)C)NC(=O)OCc1ccccc1 [calpeptin]
rd1 photoreceptors; rd1 mouse organ cultures exposed to 1 mM from P11 to P21
  rows of photoreceptors (average): 3.3±0.3 rows of photoreceptors
rd1 photoreceptors; rd1 retina-RPE sandwich cultures P10 through P21, quantified from images
  rows of photoreceptors remaining at P21: about 3.5 rows

## C[n+]1ccc(-c2cc[n+](C)cc2)cc1 [paraquat]
661W cells [1]
  effect on basal respiration rates: little or no direct effect on basal respiration rates
  respiratory / mitochondrial capacity (FCCP-uncoupled OCR): same types of loss in mitochondrial capacity

## CC(C)(C)OO [tBuOOH, tert-butylhydroperoxide]
661W cells [1]
  mitochondrial capacity measured from the FCCP response: significant loss of mitochondrial capacity
